Read-outs that look alike come from different tables or passages of the source.
How the values were obtained:
[1] = pKa of basic centres (Table 1); type: physicochemical
[2] = target: human norepinephrine transporter (Homo sapiens (Human), UniProt P23975); assay: Human NET (norepinephrine transporter) uptake assay; type: cell-based; settings: for Ki: read-out: hNET Ki; for potency at hNET relative to the other enantiomer or epimer: comparison in words, used to assign configuration
Protocol: This protocol was designed to measure inhibition of uptake by the human norepinephrine transporter. […] The Assay Buffer (AB) was 1×HBSS and 0.02 M HEPES.
(§1) The HEK293F cells were transfected with the human norepinephrine transporter and frozen in 1 mL aliquots at about 1E+07 cells/mL. On the day of the experiment, the cells were removed from −80° C. or liquid nitrogen and thawed in a room temperature water bath. The cells were dilute to about 1-2E+06 with Freestyle medium. A 1 mL sample (1:2 dilution) was prepared, and the cells were counted. The cells were spun at 1100 rpm for 5 minutes, and the medium was aspirated off. The cells were resuspend in medium at 1.5E+06 cells/mL for about 60,000 cells per well. 40 μL of cells were dispensed per well in the Biocoat plates. The plates were spun at 1100 rpm for 1 minute to improve homogeneity of the cell layer and were incubated at 37° C. for a minimum of 3 hours.
(§2) 12 μL of test compound (10 mM) in DMSO was added to the wells, and nomifensine was used as a control. […] The neurotransmitter transporter dye was prepared in AB prior to use.
(§3) Due to the proprietary nature of the dye formulation, all dye concentrations were expressed as a percentage of the vendor-recommended dye reconstitution. Thus, the above calculations were valid when both [dye] and Km were expressed in the same units (%). Compounds were tested in triplicate (n=3).

[3] = target: human dopamine transporter (Homo sapiens (Human), UniProt Q01959); assay: Human DAT (dopamine transporter) uptake assay; type: cell-based; settings: read-out: hDAT Ki
Sequence of human dopamine transporter (Q01959 whole entry): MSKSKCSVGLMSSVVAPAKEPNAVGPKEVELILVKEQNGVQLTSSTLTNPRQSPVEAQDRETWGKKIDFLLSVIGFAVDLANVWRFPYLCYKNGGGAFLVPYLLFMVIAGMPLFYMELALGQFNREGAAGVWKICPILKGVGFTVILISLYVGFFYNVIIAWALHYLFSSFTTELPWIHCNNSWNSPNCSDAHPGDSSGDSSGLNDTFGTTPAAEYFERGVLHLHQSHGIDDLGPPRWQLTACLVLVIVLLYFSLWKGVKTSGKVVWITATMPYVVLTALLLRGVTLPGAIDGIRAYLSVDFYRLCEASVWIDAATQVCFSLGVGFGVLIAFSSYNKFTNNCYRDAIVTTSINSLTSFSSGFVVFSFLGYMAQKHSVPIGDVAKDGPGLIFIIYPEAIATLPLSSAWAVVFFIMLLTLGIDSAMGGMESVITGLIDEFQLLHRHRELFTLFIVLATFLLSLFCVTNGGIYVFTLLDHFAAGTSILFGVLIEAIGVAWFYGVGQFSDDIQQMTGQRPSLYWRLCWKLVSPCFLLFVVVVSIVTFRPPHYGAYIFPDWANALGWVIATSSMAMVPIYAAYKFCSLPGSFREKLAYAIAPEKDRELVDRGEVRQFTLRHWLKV
Protocol: This protocol was designed to measure inhibition of uptake by the human dopamine transporter. […] The Assay Buffer (AB) was 1×HBSS and 0.02 M HEPES.
as §1, with “dopamine” for “norepinephrine”
as §2
Due to the proprietary nature of the dye formulation, all dye concentrations were expressed as a percentage of the vendor-recommended dye reconstitution. Thus, the above calculations were valid when both [dye] and K1 were expressed in the same units (%). Compounds were tested in triplicate (n=3).

[4] = target: human serotonin transporter (Homo sapiens (Human), UniProt P31645); assay: Human SERT (serotonin transporter) uptake assay; type: cell-based; settings: read-out: hSERT Ki
Sequence of human serotonin transporter (P31645 whole entry): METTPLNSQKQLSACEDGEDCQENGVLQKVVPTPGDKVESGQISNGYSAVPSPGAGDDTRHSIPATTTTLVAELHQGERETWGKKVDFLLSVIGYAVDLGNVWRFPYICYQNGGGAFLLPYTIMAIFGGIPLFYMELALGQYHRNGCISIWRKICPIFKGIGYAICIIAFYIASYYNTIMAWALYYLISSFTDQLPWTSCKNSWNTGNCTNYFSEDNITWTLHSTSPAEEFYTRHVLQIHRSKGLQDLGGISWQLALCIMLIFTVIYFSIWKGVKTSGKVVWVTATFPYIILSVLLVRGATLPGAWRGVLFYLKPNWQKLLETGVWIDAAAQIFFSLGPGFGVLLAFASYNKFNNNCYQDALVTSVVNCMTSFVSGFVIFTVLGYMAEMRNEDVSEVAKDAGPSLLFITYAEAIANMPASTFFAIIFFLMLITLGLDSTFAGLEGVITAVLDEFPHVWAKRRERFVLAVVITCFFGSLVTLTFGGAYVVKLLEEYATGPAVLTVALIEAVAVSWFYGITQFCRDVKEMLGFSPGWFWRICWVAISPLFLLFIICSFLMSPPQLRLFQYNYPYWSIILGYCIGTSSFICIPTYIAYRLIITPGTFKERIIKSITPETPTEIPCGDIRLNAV
Protocol: This protocol was designed to measure inhibition of uptake by the human serotonin transporter. […] The Assay Buffer (AB) was […] and 0.02 M HEPES.
as §1, with “serotonin” for “norepinephrine”
12 μL of test compound (10 mM) in DMSO was added to the wells, and nomifensine was used as a control. Fluoxetine (final assay concentration of 10 μM) was used for background signal. The neurotransmitter transporter dye was prepared in AB prior to use.
as §3

[5] = first base, e.g., an aliphatic primary, secondary, or tertiary amine, read-out: pKa (Base 1)
[6] = second base in the same molecule (if present), read-out: pKa (Base 2)

Sequence of human norepinephrine transporter (P23975 whole entry): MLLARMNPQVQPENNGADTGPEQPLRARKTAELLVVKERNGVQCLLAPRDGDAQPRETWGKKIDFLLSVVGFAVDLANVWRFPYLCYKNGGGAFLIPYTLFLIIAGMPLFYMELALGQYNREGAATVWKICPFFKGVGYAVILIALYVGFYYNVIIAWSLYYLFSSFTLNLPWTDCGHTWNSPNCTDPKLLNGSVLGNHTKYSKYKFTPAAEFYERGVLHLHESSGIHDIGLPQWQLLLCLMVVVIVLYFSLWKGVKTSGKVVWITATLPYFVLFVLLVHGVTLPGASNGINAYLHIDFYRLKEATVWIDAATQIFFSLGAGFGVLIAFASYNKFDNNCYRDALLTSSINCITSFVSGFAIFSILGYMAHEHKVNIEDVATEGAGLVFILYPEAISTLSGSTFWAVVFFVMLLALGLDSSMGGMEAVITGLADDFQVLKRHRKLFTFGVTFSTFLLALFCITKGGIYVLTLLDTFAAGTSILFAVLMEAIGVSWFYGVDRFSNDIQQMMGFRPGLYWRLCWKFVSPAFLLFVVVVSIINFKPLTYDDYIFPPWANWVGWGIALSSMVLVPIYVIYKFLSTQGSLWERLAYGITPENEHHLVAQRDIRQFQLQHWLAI

Compound | pKa [1, 5] | Ki [2] [nM] | Ki [3] [nM] | Ki [4] [nM] | further results
CNCC(Cc1ccccc1F)c1ccc2ccccc2c1 (racemic) [Compound 36] | 10 | – | – | – | –
CNC[C@H](c1ccc(OC)c(C)c1)[C@H](O)c1ccccc1 (racemic) [Compound 54] | 10 | 4.5 | 971 | 2.4 | –
CNCC(Cc1cccnc1)c1ccc(Cl)c(Cl)c1 (racemic) [Compound 80] | 9.6 | – | 52.2 | 34.7 | pKa [1, 6]: 5.2
CNC[C@@H](c1ccc(Br)c(Cl)c1)[C@H](O)c1ccccc1 (racemic) [Compound 150] | 9.4 | 6.3 | 31.8 | 51.5 | –
CNC[C@H](c1ccc2ccccc2c1)[C@H](O)c1cc(F)cc(F)c1 (single isomer, unassigned) [Compound 37] | 9.6 | 3 | 63.6 | 54.6 | –
CNC[C@H](c1ccc2ccccc2c1)[C@@H](O)c1ccncc1Cl [Compound 7] | 9.5 | 1.4 | 6.6 | 3.6 | pKa [1, 6]: 3
CNC[C@H](c1ccc2ccccc2c1)[C@H](OCC(=O)NC1CCC1)c1ccccc1 [Compound 8] | 9.6 | 1.4 | 10.8 | 1.3 | –
CNCC(Cc1ccccc1F)c1ccc2ccccc2c1 (stereo not drawn) [Compound 17] | 10 | – | – | – | –
CNCC(CCc1ccccc1)[C@@H](O)c1ccccc1 (stereo partly drawn) [Compound 27] | – | 2.3 | 96.7 | 252 | pKa (Base 1) ([1]; first base, e.g., an aliphatic primary, secondary, or tertiary amine): 10.1
CNC[C@H](c1ccc2ccccc2c1)[C@H](OCc1cccn(C)c1=O)c1ccccc1 [Compound 31] | 9.6 | 2.4 | 24.6 | 1.9 | –
CNCC(c1ccc2ccccc2c1)C(OC)c1ccccc1 (stereo not drawn) [Compound 38] | 9.7 | 3.1 | 49.9 | 16.9 | –
CNC[C@H](c1ccc2ccccc2c1)[C@H](OCC(=O)Nc1ccccc1)c1ccccc1 [Compound 45] | 9.7 | 3.3 | 8.9 | 2.4 | –
CNC[C@H](c1ccc2ccccc2c1)[C@H](OC)c1ccccc1 [Compound 46] | 9.7 | 3.4 | 37.5 | 24.2 | –
CNC[C@H](c1ccc2ccccc2c1)[C@H](O)c1cccs1 [Compound 47] | 9.7 | – | 15 | 2.2 | –
CNC[C@H](c1ccc2ccccc2c1)[C@H](OCC(=O)NCCOC)c1ccccc1 [Compound 51] | 9.6 | 3.9 | 141 | 2.6 | –
CNC[C@@H](Cc1cccnc1)c1ccc(Cl)c(Cl)c1 [Compound 59] | 9.6 | – | 112 | 35.6 | pKa [1, 6]: 5.2
CNC[C@H](c1ccc2ccccc2c1)[C@H](OCC(=O)NCC(F)(F)F)c1ccccc1 [Compound 68] | 9.6 | 8.4 | 55.5 | 29.7 | –
CNC[C@H](c1ccc2ccccc2c1)[C@H](OCC(=O)N(C)OC)c1ccccc1 [Compound 71] | 9.6 | 10 | 17.9 | 4.4 | –
CNC[C@H](c1ccc2ccccc2c1)[C@H](OCc1cccc(=O)n1C)c1ccccc1 [Compound 79] | 9.7 | 14.4 | 73.3 | 6.4 | –
CNC[C@H](c1ccc2ccccc2c1)[C@H](O[C@H](C)C(=O)N1CCCC1)c1ccccc1 [Compound 81] | 9.6 | 14.7 | 1360 | 13 | –

Compound | pKa [1, 5] | Ki [2] [nM] | Ki [3] [nM] | Ki [4] [nM] | further results
CNC[C@H](c1ccc2ccccc2c1)[C@H](OCc1nc(C(=O)OC)co1)c1ccccc1 [Compound 84] | 9.6 | 16.2 | 39.2 | 3.3 | –
NC[C@@H](c1ccc2ccccc2c1)[C@@H](O)c1ccccc1 [Compound 88] | 8.7 | – | 80.4 | – | –
NCC(c1ccc2ccccc2c1)[C@@H](O)c1ccccc1 (stereo partly drawn) [Compound 91] | 8.7 | – | 249 | – | –
CNC[C@H](Cc1cccnc1)c1ccc(Cl)c(Cl)c1 [Compound 115] | 9.6 | – | 127 | 642 | pKa [1, 6]: 5.2
CNC[C@H](Cc1ccccc1F)c1ccc2ccccc2c1 [Compound 138] | 10 | – | – | – | –
CCc1ccccc1[C@@H](O)[C@H](CNC)c1ccc(Cl)c(Cl)c1 [compound 158] | – | – | – | – | potency at hNET ([2]; stated in synthesis example): 6 nM
CCc1cccc([C@@H](O)[C@H](CNC)c2ccc(Cl)c(Cl)c2)c1 [compound 159] | – | – | – | – | potency at hNET relative to the other enantiomer or epimer [2]: more potent
CNC[C@H](c1ccc(Cl)c(Cl)c1)[C@H](O)c1ccccc1OC [compound 160] | – | – | – | – | potency at hNET relative to the other enantiomer or epimer [2]: greater hNET potency
CNC[C@H](c1ccc(Cl)c(Cl)c1)[C@@H](O)c1cccc(Br)c1 [compound 161] | – | – | – | – | potency at hNET relative to the other enantiomer or epimer [2]: more potent
CNC[C@@H](c1ccc(Cl)c(Cl)c1)[C@@H](O)c1cccc(Br)c1 [compound 162] | – | – | – | – | potency at hNET relative to the other enantiomer or epimer [2]: less potent
CNC[C@H](c1ccc(Cl)c(Cl)c1)[C@@H](O)c1cccc(SC)c1 [compound 163] | – | – | – | – | potency at hNET relative to the other enantiomer or epimer [2]: more potent
CNC[C@H](c1ccc(Cl)c(Cl)c1)[C@H](O)c1ccccc1I [compound 164] | – | – | – | – | potency at hNET relative to the other enantiomer or epimer [2]: greater potency
CNC[C@H](c1ccc(Cl)c(Cl)c1)[C@@H](O)c1cccc(I)c1 [compound 165] | – | – | – | – | potency at hNET relative to the other enantiomer or epimer [2]: higher potency
CNC[C@H](c1ccc(Cl)c(Cl)c1)[C@H](O)c1cncc(OC)c1 [compound 166] | – | – | – | – | potency at hNET relative to the other enantiomer or epimer [2]: more potent
CNC[C@H](c1ccc(Cl)c(Cl)c1)[C@H](O)c1cccc(OC)n1 [compound 167] | – | – | – | – | potency at hNET relative to the other enantiomer or epimer [2]: higher potency
CNCC(c1ccc2ccccc2c1)[C@@H](O)c1ccc(Cl)nc1 (stereo partly drawn) [compound 169] | – | – | – | – | potency at hNET relative to the other enantiomer or epimer [2]: lower potency
CNC[C@@H](c1ccc(Cl)c(Cl)c1)[C@@H](O)c1cccnc1OC [compound 171] | – | – | – | – | potency at hNET relative to the other enantiomer or epimer [2]: less potent
CNC[C@@H](c1ccc(Cl)c(Cl)c1)[C@@H](OC)c1cccc(NS(=O)(=O)C(F)(F)F)c1 [compound 172] | – | – | – | – | potency at hNET relative to the other enantiomer or epimer [2]: less potent
CNCCC(Oc1ccccc1OC)c1ccccc1 (stereo not drawn) [compound 177] | – | – | – | 54.4 | –

Second part, led by results:

pKa [1, 5] | Ki [2] [nM] | Ki [3] [nM] | Ki [4] [nM] | Compound | further results
9.7 | 8.5 | 114 | 191 | CNC[C@H](c1ccc(Cl)cc1)[C@H](O)c1ccccc1 (racemic) [Compound 148] | –
9.7 | 7.7 | 129 | 119 | CNC[C@H](c1ccc(Br)cc1)[C@H](O)c1ccccc1 (racemic) [Compound 149] | –
9.6 | – | – | – | CNC[C@H](c1ccc2ccccc2c1)[C@H](OCC(=O)N1CC[C@H](OC)C1)c1ccccc1 [Compound 131] | –
9.3 | – | 77.7 | 31.8 | NCC(Cc1ccccc1F)c1ccc2ccccc2c1 (stereo not drawn) [Compound 137] | –
9.7 | – | 113 | 10 | CNC[C@@H](c1ccc2ccccc2c1)[C@@H](O)c1cccs1 [Compound 144] | –
10.1 | 45.7 | 121 | 800 | CNCC(CCc1ccccc1)[C@@H](O)c1ccccc1 (stereo partly drawn) [Compound 147] | –

From US9944618B2, “Inhibiting neurotransmitter reuptake” (Mayo Foundation for Medical Education and Research, priority 2013, dated 2018)
